# Test results taken from US20160075653A1, “NEMATICIDAL N-(PHENYLCYCLOALKYL)CARBOXAMIDES AND N-(PHENYLCYCLOALKYL)THIOCARBOXAMIDES” (BAYER CROPSCIENCE AKTIENGESELLSCHAFT, priority 2013, published 2016).
# Test: Measurement of log P values by HPLC on reversed phase columns (methods [a] pH 2.3, [b] pH 2.7, [c] pH 7.8)
# Type: physicochemical
# Settings: HPLC on reversed phase column, method [b], pH 2.7
# Procedure: Measurement of log P-Values:
# Measurement of log P Values was Performed According EEC Directive 79/831 Annex V.A8 by HPLC (High Performance Liquid
# Chromatography) on reversed phase columns with the following methods: ^[a] Measurement was done at pH 2.3 with 0.1% phosphoric acid and acetonitrile as eluent with a linear gradient from 10% acetonitrile to 95% acetonitrile. ^[b] measurement of LC-MS was done at pH 2.7 with 0.1% formic acid in water and with acetonitrile (contains 0.1% formic acid) as eluent with a linear gradient from 10% acetonitrile to 95% acetonitrile. ^[c] Measurement with LC-MS was done at pH 7.8 with 0.001 molar ammonium hydrogen carbonate solution in water as eluent with a linear gradient from 10% acetonitrile to 95% acetonitrile.
# Calibration was done with linear alkan-2-ones (with 3 to 16 carbon atoms) with known log P-values (measurement of log P values using retention times with linear interpolation between successive alkanones). Lambda-max-values were determined using UV-spectra from 200 nm to 400 nm and the peak values of the chromatographic signals.
row,SMILES,logP
1,O=C(N[C@@H]1CC[C@H]1c1cccc(F)c1C(F)(F)F)c1ccccc1Cl (relative stereo) [Compound 598],3.50^[b]
2,O=C(N[C@@H]1CC[C@@H]1c1cccc(F)c1C(F)(F)F)c1ccccc1Br (relative stereo) [Compound 654],3.30^[b]

# Same assay, conditions: HPLC on reversed phase columns, method [b], pH 2.7
row,SMILES,logP
1,O=C(N[C@@H]1CCC[C@@H]1c1ccc(F)c(F)c1)c1ccsc1I (relative stereo) [Compound 56],3.29^[b]
2,COc1nn(C)cc1C(=O)N[C@@H]1C[C@H]1c1ccccc1 (relative stereo) [Example 41],2.03^[b]
3,O=C(N[C@@H]1C[C@H]1c1ccccc1)c1ccccc1I (relative stereo) [Example 44],2.93^[b]
4,O=C(N[C@@H]1C[C@H]1c1ccccc1)c1ccccc1Cl (relative stereo) [Example 46],2.68^[b]
5,O=C(N[C@@H]1C[C@H]1c1ccccc1Cl)c1c(Cl)cccc1Cl (relative stereo) [Example 50],3.32^[b]
6,Cn1cc(C(=O)N[C@@H]2CCC[C@@H]2c2ccc(F)c(F)c2)c(C(F)F)n1 (relative stereo) [Example 52],2.64^[b]
7,CC(F)c1nn(C)cc1C(=O)N[C@@H]1CCC[C@@H]1c1ccc(F)c(F)c1 (relative stereo) [Example 53],2.62^[b]
8,Cc1nc(C(F)(F)F)c(C(=O)N[C@@H]2CCC[C@@H]2c2ccc(F)c(F)c2)s1 (relative stereo) [Example 55],3.19^[b]
9,Cc1occc1C(=O)N[C@@H]1CCC[C@@H]1c1ccc(F)c(F)c1 (relative stereo) [Example 59],3.06^[b]
10,Cc1nocc1C(=O)N[C@@H]1CCC[C@H]1c1ccc(F)c(F)c1 (relative stereo) [Example 60],2.78^[b]
11,Cc1ncccc1C(=O)N[C@@H]1CCC[C@@H]1c1ccc(F)c(F)c1 (relative stereo) [Example 62],1.67^[b]
12,O=C(N[C@@H]1CCC[C@@H]1c1ccc(F)c(F)c1)c1ccccc1F (relative stereo) [Example 66],3.33^[b]
13,O=C(N[C@@H]1CCC[C@@H]1c1ccc(F)c(F)c1)c1cccnc1F (relative stereo) [Example 68],2.76^[b]
14,Cc1ccsc1C(=O)N[C@@H]1CCC[C@@H]1c1ccc(F)c(F)c1 (relative stereo) [Example 70],3.39^[b]
15,N#Cc1ccccc1C(=O)N[C@@H]1CCC[C@@H]1c1ccc(F)c(F)c1 (relative stereo) [Example 73],3.04^[b]
16,N#Cc1ncccc1C(=O)N[C@@H]1CCC[C@@H]1c1ccc(F)c(F)c1 (relative stereo) [Example 74],3.21^[b]
17,COc1ccccc1C(=O)N[C@@H]1CCC[C@@H]1c1ccc(F)c(F)c1 (relative stereo) [Example 75],3.39^[b]
18,COc1nn(C)cc1C(=O)N[C@@H]1CCC[C@@H]1c1ccc(F)c(F)c1 (relative stereo) [Example 76],2.64^[b]
19,Cc1nn(C)c(F)c1C(=O)N[C@@H]1CCC[C@@H]1c1ccc(F)c(F)c1 (relative stereo) [Example 77],2.60^[b]
20,COc1cscc1C(=O)N[C@@H]1CCC[C@@H]1c1ccc(F)c(F)c1 (relative stereo) [Example 78],3.29^[b]
21,CC1=C(C(=O)N[C@@H]2CCC[C@@H]2c2ccc(F)c(F)c2)SCCO1 (relative stereo) [Example 79],3.15^[b]
22,O=C(N[C@@H]1CCC[C@@H]1c1ccc(F)c(F)c1)c1cnccc1C(F)(F)F (relative stereo) [Example 89],2.92^[b]
23,Cn1cc(C(=O)N[C@@H]2CCC[C@@H]2c2ccc(F)c(F)c2)c(C(F)(F)F)c1 (relative stereo) [Example 91],3.27^[b]
24,O=C(N[C@@H]1CCC[C@@H]1c1ccc(F)c(F)c1)c1sccc1C(F)(F)F (relative stereo) [Example 93],3.63^[b]

# Second part, the compound after the results:
row,logP,SMILES
1,2.84^[b],CC(F)c1nn(C)cc1C(=O)NC1CCCC1c1ccc(F)c(F)c1 (mixture of isomers) [Example 126]
2,1.99^[b],Cc1nn(C)c(F)c1C(=O)N[C@@H]1C[C@H]1c1ccccc1 (relative stereo) [Example 42]
3,2.36^[b],CCOc1nn(C)cc1C(=O)N[C@@H]1C[C@H]1c1ccccc1 (relative stereo) [Example 43]
4,2.79^[b],O=C(N[C@@H]1C[C@H]1c1ccccc1)c1ccccc1Br (relative stereo) [Example 45]
5,2.99^[b],O=C(N[C@@H]1C[C@H]1c1ccccc1)c1c(Cl)cccc1Cl (relative stereo) [Example 47]
6,3.31^[b],O=C(N[C@@H]1C[C@H]1c1ccccc1Cl)c1ccccc1C(F)(F)F (relative stereo) [Example 51]
7,2.78^[b],CCOc1nn(C)cc1C(=O)N[C@@H]1CCC[C@@H]1c1ccc(F)c(F)c1 (relative stereo) [Example 54]
8,3.19^[b],O=C(N[C@@H]1CCC[C@@H]1c1ccc(F)c(F)c1)C1=C(C(F)(F)F)OCCS1 (relative stereo) [Example 57]
9,3.31^[b],O=C(N[C@@H]1CCC[C@@H]1c1ccc(F)c(F)c1)c1ccccc1I (relative stereo) [Example 58]
10,2.69^[b],Cc1nocc1C(=O)N[C@@H]1CCC[C@@H]1c1ccc(F)c(F)c1 (relative stereo) [Example 61]
11,1.75^[b],Cc1ncccc1C(=O)N[C@@H]1CCC[C@H]1c1ccc(F)c(F)c1 (relative stereo) [Example 63]
12,3.31^[b],Cc1cccnc1C(=O)N[C@@H]1CCC[C@@H]1c1ccc(F)c(F)c1 (relative stereo) [Example 64]
13,2.15^[b],Cc1ncncc1C(=O)N[C@@H]1CCC[C@@H]1c1ccc(F)c(F)c1 (relative stereo) [Example 65]
14,3.35^[b],Cc1cc(C(=O)N[C@@H]2CCC[C@@H]2c2ccc(F)c(F)c2)c(C)o1 (relative stereo) [Example 67]
15,2.59^[b],O=C(N[C@@H]1CCC[C@@H]1c1ccc(F)c(F)c1)c1ccncc1F (relative stereo) [Example 69]
16,2.57^[b],Cc1ncc(C(=O)N[C@@H]2CCC[C@@H]2c2ccc(F)c(F)c2)s1 (relative stereo) [Example 71]
17,2.86^[b],Cc1nnsc1C(=O)N[C@@H]1CCC[C@@H]1c1ccc(F)c(F)c1 (relative stereo) [Example 72]
18,3.72^[b],O=C(N[C@@H]1CCC[C@@H]1c1ccc(F)c(F)c1)c1sccc1Cl (relative stereo) [Example 80]
19,2.80^[b],CCCc1nn(C)cc1C(=O)N[C@@H]1CCC[C@@H]1c1ccc(F)c(F)c1 (relative stereo) [Example 81]
20,2.92^[b],CCc1nn(C)c(F)c1C(=O)N[C@@H]1CCC[C@@H]1c1ccc(F)c(F)c1 (relative stereo) [Example 83]
21,2.92^[b],CCn1nc(C)c(C(=O)N[C@@H]2CCC[C@@H]2c2ccc(F)c(F)c2)c1F (relative stereo) [Example 84]
22,2.82^[b],Cc1nn(C)c(Cl)c1C(=O)N[C@@H]1CCC[C@@H]1c1ccc(F)c(F)c1 (relative stereo) [Example 85]
23,3.25^[b],CCCc1nn(C)c(F)c1C(=O)N[C@@H]1CCC[C@@H]1c1ccc(F)c(F)c1 (relative stereo) [Example 87]
24,3.50^[b],O=C(N[C@@H]1CCC[C@@H]1c1ccc(F)c(F)c1)c1ccccc1C(F)(F)F (relative stereo) [Example 88]
25,3.31^[b],O=C(N[C@@H]1CCC[C@@H]1c1ccc(F)c(F)c1)c1ncccc1C(F)(F)F (relative stereo) [Example 90]
26,2.98^[b],Cn1cc(C(=O)N[C@@H]2CCC[C@@H]2c2ccc(F)c(F)c2)c(C(F)(F)F)n1 (relative stereo) [Example 92]
27,3.35^[b],O=C(N[C@@H]1CCC[C@@H]1c1ccc(F)c(F)c1)c1ccccc1Br (relative stereo) [Example 94]

# Same assay, conditions: HPLC reversed phase, method [b] (pH 2.7)
row,SMILES,logP
1,O=C(N[C@@H]1CCC[C@@H]1c1ccccc1F)c1ccc(I)s1 (relative stereo) [Compound 337],3.70^[b]
2,O=C(N[C@@H]1CC[C@@H]1c1c(F)cccc1F)c1ncccc1Cl (relative stereo) [Compound 438],2.73^[b]
3,O=C(N[C@@H]1CC[C@H]1c1ccc(F)cc1C(F)(F)F)c1ccccc1I (relative stereo) [Compound 502],3.76^[b]
4,O=C(N[C@@H]1CC[C@@H]1c1ccccc1Cl)c1sccc1I (relative stereo) [Compound 546],3.72^[b]
5,O=C(N[C@@H]1C[C@@H]1c1ccc(Cl)cc1Cl)c1ccccc1I (relative stereo) [Compound 578],3.43^[b]
6,O=C(N[C@@H]1C[C@@H]1c1ccc(Cl)cc1Cl)c1ccccc1Cl (relative stereo) [Compound 580],3.27^[b]
7,O=C(N[C@@H]1C[C@@H]1c1ccc(Cl)cc1Cl)c1c(F)cccc1F (relative stereo) [Compound 581],3.44^[b]
8,O=C(N[C@@H]1C[C@@H]1c1ccc(Cl)cc1Cl)c1sccc1I (relative stereo) [Compound 582],3.78^[b]

# Same assay, conditions: HPLC reversed phase, method [c] pH 7.8
row,SMILES,logP
1,O=C(N[C@@H]1CCC[C@@H]1c1ccccc1F)c1ccc(I)s1 (relative stereo) [Compound 337],3.58^[c];

# Same assay, conditions: HPLC-MS, method [b]: pH 2.7, 0.1% formic acid / acetonitrile; read-out: log P^b)
row,SMILES,chromatographic logP
1,"O=C(N[C@@H]1C[C@]1(F)c1ccc(Cl)cc1)c1c(F)cccc1F (relative stereo) [Compound 750, rel-N-[(1R,2S)-2-(4-chlorophenyl)-2-fluorocyclopropyl]-2,6-difluorobenzamide]",2.69
